From the NIST ThermoML archive (doi:10.1021/je200640q) come the findings set out here.

± gives the expanded uncertainty stated by the source.

The conditions of data set [1]: Crystal; DTA.
A short description of data set [2]: Molar enthalpy of transition or fusion. The note with it: Crystal; DSC.

Take `CC(C)(c1ccc(O)cc1)c1ccc(O)cc1` [2,2-(4',4''-dihydroxy)diphenylpropane]: the Normal melting temperature in data set [1] is 156.50 ± 0.5 °C. The “Molar enthalpy of transition or fusion” value in data set [2] was 7.34 ± 0.215 kcal/mol.
